# Tested on: IgG from human donors (anti-AAV antibodies)
# Experiment: Screen for anti-AAV antibodies in human sera, 2452 linear 15-amino-acid AAV peptides on microarrays (Table 1)
# Assay type: binding
# Set-up: key to group I: X: the deduplicated aggregate of the respective top 10 peptide hits for each donor was compiled and designated as group I; key to group II: X: the deduplicated aggregate of the respective top 25 peptide hits for each donor was compiled and designated as group II; key to group III: X: the deduplicated aggregate of the respective top 50 peptide hits for each donor was compiled and designated as group III
# Settings: for group I: membership in deduplicated aggregate of top 10 peptide hits for each donor
# Method: 2452 linear peptides derived from the sequences of 16 different AAVs and with a sequence length of 15 amino-acids each were synthesized.
# Samples obtained from human donors were screened for antibodies against these AAV-derived peptides immobilized on microarrays. To this end, IgG was prepared from blood obtained from the human donors by protein G purification. Each IgG sample was incubated with the peptide microarrays and Ig binding signals were detected by fluorescence. All antibody binding signals to the peptides on the arrays were background subtracted and ranked for each sample and a deduplicated aggregate of the respective top 250 peptide hits for each donor with the corresponding protein sequence of origin (as obtained from UniProt or other sources) was compiled (designated as group IV). Further, the deduplicated aggregate of the respective top 50 peptide hits for each donor was compiled and designated as group III. Further, the deduplicated aggregate of the respective top 25 peptide hits for each donor was compiled and designated as group II. Finally, the deduplicated aggregate of the respective top 10 peptide hits for each donor was compiled and designated as group I.
# Altogether, group I contains 110 distinct peptide hits (assigned to the corresponding AAV vectors in Table 1), group II contains 289 distinct peptide hits, group III contains 428 distinct peptide hits and group IV contains 1271 distinct peptide hits. Evidently, group I is a subset of group II which in turn is a subset of group III which in turn is a subset of group IV. Groups I-IV correspond to the top 4.4%, […], 17.5% and 51.8%, respectively, of all peptides screened.
# [1] = X = peptide in the deduplicated aggregate of the top 50 peptide hits for each donor (top 17.5% of all peptides screened), linear 15-amino-acid AAV peptides on microarrays, human donor IgG, fluorescence
# [2] = X = peptide belongs to the deduplicated aggregate of the top 50 peptide hits for each donor, linear 15-amino-acid AAV peptides, IgG binding by fluorescence
# [3] = human donor IgG binding to linear 15-amino-acid AAV peptides on microarray, fluorescence
# [4] = membership in deduplicated aggregate of top 25 peptide hits for each donor, human donor IgG binding to linear 15-amino-acid AAV peptides on microarray, fluorescence
# [5] = membership in deduplicated aggregate of top 50 peptide hits for each donor, human donor IgG binding to linear 15-amino-acid AAV peptides on microarray, fluorescence
# [6] = X = peptide belongs to the deduplicated aggregate of the top 25 peptide hits for each donor, linear 15-amino-acid AAV peptides, IgG binding by fluorescence
substance,measurement,setting,value
430 (NTPVPADPPTTFNQS; REGION 1..15: note = peptide derived from viral capsid protein) [compound 430],group III,[1],X
298 (PLGLVESPVKTAPGK; REGION 1..15: note = peptide derived from viral capsid protein) [compound 298],group III,[2],X
PVPADPPTTESQAK [SEQ ID NO: 1931],group I,[3],X
same,group II,[4],X
same,group III,[5],X
327 (QVKEVTQNDGTTTIA; REGION 1..15: note = peptide derived from viral capsid protein) [compound 327],group III,[2],X
438 (TTGGTANTQTLGFSQ; REGION 1..15: note = peptide derived from viral capsid protein) [compound 438],group III,[1],X
GNTSQQQTDRNAFY (REGION 1..14: note = peptide derived from viral capsid protein) [SEQ ID NO: 1897],group I,[3],X
same,group II,[4],X
same,group III,[5],X
321 (IEKVMITDEEEIRTT; REGION 1..15: note = peptide derived from viral capsid protein) [compound 321],group III,[2],X
287 (AQPASSLGADTMSAG; REGION 1..15: note = peptide derived from viral capsid protein) [compound 287],group II,[6],X
same,group III,[2],X
282 (FITQYSTGQVTVEME; REGION 1..15: note = peptide derived from viral capsid protein) [compound 282],group II,[6],X
same,group III,[2],X
349 (GSQAVGRSSFYCLEY; REGION 1..15: note = peptide derived from viral capsid protein) [compound 349],group III,[2],X
474 (ENSKRWNPEIQYTNN; REGION 1..15: note = peptide derived from viral capsid protein) [compound 474],group III,[1],X
428 (PVATEEYGIVADNLQ; REGION 1..15: note = peptide derived from viral capsid protein) [compound 428],group III,[1],X
QQRVSTTLSQNNNS [SEQ ID NO: 1963],group I,[3],X
same,group II,[4],X
same,group III,[5],X
340 (FSYTFEDVPFHSSYA; REGION 1..15: note = peptide derived from viral capsid protein) [compound 340],group III,[2],X
GQNNNSNFAWTAGT [SEQ ID NO: 1936],group I,[3],X
same,group II,[4],X
same,group III,[5],X
284 (NVGGQMATNNQSSTT; REGION 1..15: note = peptide derived from viral capsid protein) [compound 284],group II,[6],X
same,group III,[2],X
293 (SQMLRTGNFEFSYFE; REGION 1..15: note = peptide derived from viral capsid protein) [compound 293],group III,[2],X
286 (VLEPFGLVEEGAKTA; REGION 1..15: note = peptide derived from viral capsid protein) [compound 286],group II,[6],X
same,group III,[2],X
DWLEDNLSEGIREW (REGION 1..14: note = peptide derived from viral capsid protein) [SEQ ID NO: 1943],group I,[3],X
same,group II,[4],X
same,group III,[5],X
326 (PVATEQYGSVSTNLQ; REGION 1..15: note = peptide derived from viral capsid protein) [compound 326],group III,[2],X
330 (DSGDNPYLKYNHADA; REGION 1..15: note = peptide derived from viral capsid protein) [compound 330],group III,[2],X
YYKSTNVDFAVNTE [SEQ ID NO: 1916],group I,[3],X
same,group II,[4],X
same,group III,[5],X
317 (HKDDEEKFFPQSGVL; REGION 1..15: note = peptide derived from viral capsid protein) [compound 317],group III,[2],X
PGAPKPKANQQKQD [SEQ ID NO: 1958],group I,[3],X
same,group II,[4],X
same,group III,[5],X
343 (TFEDVPFHSSYAHSQ; REGION 1..15: note = peptide derived from viral capsid protein) [compound 343],group III,[2],X
SEPRPIGTRYLTRN (REGION 1..14: note = peptide derived from viral capsid protein) [SEQ ID NO: 1964],group I,[3],X
same,group II,[4],X
same,group III,[5],X
300 (TFNQAKLASFITQYS; REGION 1..15: note = peptide derived from viral capsid protein) [compound 300],group III,[2],X
431 (EIKTTNPVATEEYGI; REGION 1..15: note = peptide derived from viral capsid protein) [compound 431],group III,[1],X
466 (ELKKENSKRWNPEIQ; REGION 1..15: note = peptide derived from viral capsid protein) [compound 466],group III,[1],X
383 (FNGLDKGEPVNAADA; REGION 1..15: note = peptide derived from viral capsid protein) [compound 383],group III,[2],X
408 (STTVTQNNNSEFAWP; REGION 1..15: note = peptide derived from viral capsid protein) [compound 408],group III,[1],X
481 (LGLEAGPPKPKPNQQ; REGION 1..15: note = peptide derived from viral capsid protein) [compound 481],group III,[1],X
459 (YSTGQVTVEMEWELK; REGION 1..15: note = peptide derived from viral capsid protein) [compound 459],group III,[1],X
288 (VQDSTTTIANNLTST; REGION 1..15: note = peptide derived from viral capsid protein) [compound 288],group II,[6],X
same,group III,[2],X
285 (PSKMLRTGNNFEFTY; REGION 1..15: note = peptide derived from viral capsid protein) [compound 285],group II,[6],X
same,group III,[2],X
382 (FHSSYAHSQSLDRLM; REGION 1..15: note = peptide derived from viral capsid protein) [compound 382],group III,[2],X
LQQQNAAPIVGAVN (REGION 1..14: note = peptide derived from viral capsid protein) [SEQ ID NO: 1955],group I,[3],X
same,group II,[4],X
same,group III,[5],X
319 (EQYGSVSTNLQRGNR; REGION 1..15: note = peptide derived from viral capsid protein) [compound 319],group III,[2],X
454 (YFGYSTPWGYFDFNR; REGION 1..15: note = peptide derived from viral capsid protein) [compound 454],group III,[1],X
361 (YSTPWGYFDFNRFHC; REGION 1..15: note = peptide derived from viral capsid protein) [compound 361],group III,[2],X
354 (YFDFNRFHCHFSPRD; REGION 1..15: note = peptide derived from viral capsid protein) [compound 354],group III,[2],X
445 (NNSNFAWTAGTKYHL; REGION 1..15: note = peptide derived from viral capsid protein) [compound 445],group III,[1],X
432 (GSSSGNWHCDSTWLG; REGION 1..15: note = peptide derived from viral capsid protein) [compound 432],group III,[1],X
DDEDKFFPMSGVMI (REGION 1..14: note = peptide derived from viral capsid protein) [SEQ ID NO: 1937],group I,[3],X
same,group II,[4],X
same,group III,[5],X
QLPYVLGSAHQGCL (REGION 1..14: note = peptide derived from viral capsid protein) [SEQ ID NO: 1962],group I,[3],X
same,group II,[4],X
same,group III,[5],X
EEIKTTNPVATEQY (REGION 1..14: note = peptide derived from viral capsid protein) [SEQ ID NO: 1945],group I,[3],X
same,group II,[4],X
same,group III,[5],X
